Broadly, the EC50 is the concentration that produces a half-maximal response. The term Ki denotes a measure of affinity in units of concentration, obtained from inhibition or displacement. Higher therefore signals weaker binding.

Experimental findings from US8362054B2, “Therapeutic substituted lactams” (Allergan, Inc., priority 2007, dated 2013) are described below.

The target in assay [1] is T1, EP2 (Homo sapiens, UniProt P43116). The experiment in a line: EP2 cAMP assay. Type of assay: cell-based. From the text:
(§1) U.S. patent application Ser. No. 11/553,143, filed on Oct. 26, 2006, incorporated by reference herein, describes the methods used to obtain the in vitro data in the table below.
Background: Cyclic AMP is a second messenger, typically raised through Gs and lowered through Gi signalling.

Assay [2] concerns the target T1, EP2. The assay can be described thus: EP2 flipr functional assay. Type of assay: cell-based.
Excerpt: as §1

The target in assay [3] is T1, EP2. The assay can be described thus: EP2 binding (Ki).
Excerpt: as §1

For assay [4], the target named is T2, EP4 (Homo sapiens, UniProt P35408). The experiment in a line: EP4 flipr functional assay. Type of assay: cell-based.
Excerpt: as §1

Assay [5] addresses T2, EP4. The experiment in a line: EP4 binding (KI).
Excerpt: as §1

In the next assay the target is T3, hEP3A (Homo sapiens, UniProt P43115).
T3 sequence (P43115 1-390): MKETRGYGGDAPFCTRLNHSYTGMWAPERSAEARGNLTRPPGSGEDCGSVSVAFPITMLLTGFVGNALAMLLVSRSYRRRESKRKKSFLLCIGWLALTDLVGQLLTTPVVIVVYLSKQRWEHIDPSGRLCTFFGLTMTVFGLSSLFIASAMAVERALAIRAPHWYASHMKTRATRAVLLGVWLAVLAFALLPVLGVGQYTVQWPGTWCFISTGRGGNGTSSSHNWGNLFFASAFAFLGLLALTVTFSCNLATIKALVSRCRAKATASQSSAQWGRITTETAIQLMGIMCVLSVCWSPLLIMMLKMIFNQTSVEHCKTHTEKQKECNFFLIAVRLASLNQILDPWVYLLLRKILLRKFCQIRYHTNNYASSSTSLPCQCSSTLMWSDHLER
The assay can be described thus: Other receptors functional assay, hEP3A. Type of assay: cell-based.
Excerpt: as §1

Each structure is given as a SMILES string.

T1 sequence (P43116 whole entry): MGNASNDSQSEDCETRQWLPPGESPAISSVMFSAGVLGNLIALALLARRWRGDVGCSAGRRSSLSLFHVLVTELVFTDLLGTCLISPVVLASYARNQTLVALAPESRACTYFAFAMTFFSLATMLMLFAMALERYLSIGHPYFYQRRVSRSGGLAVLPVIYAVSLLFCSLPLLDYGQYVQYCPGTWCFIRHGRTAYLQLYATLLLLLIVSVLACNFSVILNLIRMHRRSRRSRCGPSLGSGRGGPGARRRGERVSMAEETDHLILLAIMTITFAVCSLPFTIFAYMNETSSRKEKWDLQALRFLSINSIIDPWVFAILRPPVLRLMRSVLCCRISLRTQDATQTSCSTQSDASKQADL
T2 sequence (P35408 whole entry): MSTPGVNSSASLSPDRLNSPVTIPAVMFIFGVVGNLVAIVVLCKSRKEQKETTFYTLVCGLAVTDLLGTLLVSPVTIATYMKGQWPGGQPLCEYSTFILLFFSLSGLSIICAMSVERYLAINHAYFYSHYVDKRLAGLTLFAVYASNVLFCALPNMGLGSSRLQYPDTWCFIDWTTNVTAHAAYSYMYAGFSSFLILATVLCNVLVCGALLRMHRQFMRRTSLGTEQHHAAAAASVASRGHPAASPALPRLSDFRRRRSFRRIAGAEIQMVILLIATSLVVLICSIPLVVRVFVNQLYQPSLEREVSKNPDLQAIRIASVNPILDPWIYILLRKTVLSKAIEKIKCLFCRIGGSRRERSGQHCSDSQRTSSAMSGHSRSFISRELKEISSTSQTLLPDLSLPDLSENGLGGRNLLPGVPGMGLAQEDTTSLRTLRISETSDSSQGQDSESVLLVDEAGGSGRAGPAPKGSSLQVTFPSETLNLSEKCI

Turning to `O=C(O)c1ccc(COC[C@H]2CCC(=O)N2Cc2cc(Cl)cc(Cl)c2)s1` [(R)-5-(((1-(3,5-dichlorobenzyl)-5-oxopyrrolidin-2-yl)methoxy)methyl)thiophene-2-carboxylic acid], the EC50 on EP2 [1] is 0.081 µM; on EP2 [2], 8.51 µM; on EP4 [4], more than 10 µM; at hEP3A, 6450 nM. For the same molecule, the Ki at EP2 [3] was found to be 2.57 µM; at EP4 [5], 7.3 µM.
